The source of these data is PMC3815523 (ACS chemical biology, 2013).

The subject of one assay is TBK1 in Raw264.7 cells. Nature of the assay: TBK1 phospho-Ser 172 immunoblot in Raw264.7 cells. It is filed as cell-based, mouse.
In assay [1] the target is hSTING CTD (amino acid residues 139-379) (Homo sapiens, UniProt Q86WV6). The assay is described as follows: Isothermal titration calorimetry, hSTING-CTD. It is filed as binding. (In general: In ITC the heat of successive injections is recorded.)
Sequence of hSTING CTD (amino acid residues 139-379) (Q86WV6 140-379): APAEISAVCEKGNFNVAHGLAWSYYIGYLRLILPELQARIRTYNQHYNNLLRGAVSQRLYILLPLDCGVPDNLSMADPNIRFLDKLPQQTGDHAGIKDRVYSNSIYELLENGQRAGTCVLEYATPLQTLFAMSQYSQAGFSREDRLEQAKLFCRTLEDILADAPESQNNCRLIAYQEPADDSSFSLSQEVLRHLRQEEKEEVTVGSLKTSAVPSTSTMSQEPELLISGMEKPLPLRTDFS
The test system of a further assay is Raw264.7 cells. Nature of the assay: IFN-β secretion in Raw264.7 cells. It is filed as cell-based. The conditions noted are these: Raw264.7 mouse macrophage cell line.
The subject of assay [2] is full-length mSTING in 293T cells. The assay is described as follows: Response of 293T cells overexpressing full-length mSTING. The format is cell-based, mouse. The following applies: 293T cells overexpressing mSTING; c-di-GMP 2 μg/ml transfected, DMXAA 500 μM.
Another assay concerns IRF3. Nature of the assay: IRF3-driven luciferase reporter cell line. It is filed as cell-based, mouse.
A further assay has as its system human leukocytes. The following applies: cited from earlier work.
The target of a further assay is T1, mSTING CTD (Mus musculus, UniProt Q3TBT3).
T1 sequence (Q3TBT3 139-378): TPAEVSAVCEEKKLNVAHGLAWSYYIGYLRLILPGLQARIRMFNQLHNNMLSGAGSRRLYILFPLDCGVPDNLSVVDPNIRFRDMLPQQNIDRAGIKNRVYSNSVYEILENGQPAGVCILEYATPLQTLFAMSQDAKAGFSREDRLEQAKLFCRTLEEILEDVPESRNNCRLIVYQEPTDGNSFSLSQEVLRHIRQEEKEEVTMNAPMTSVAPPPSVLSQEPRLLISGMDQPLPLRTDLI
The assay is described as follows: Fluorescence polarization competition assay with fluorescein-labeled c-di-GMP. The format is binding. The following applies: FP. (In fluorescence polarisation assays a small probe gives low polarisation when free and higher when bound to something large.)

Assay [3] deals with T2, mSTING CTD (amino acids 139-378) (Mus musculus, UniProt Q3TBT3).
T2 sequence (Q3TBT3 139-378): T1 sequence (Q3TBT3 139-378)
Nature of the assay: Isothermal titration calorimetry, mSTING-CTD. The following applies: ITC. It is filed as binding.

For the molecule `Cc1ccc2c(=O)c3cccc(CC(=O)O)c3oc2c1C` [DMXAA, 5,6– dimethylxanthenone-4-acetic acid], the “TBK1 phosphorylation (phospho-Ser 172)” value in the assay on TBK1 in Raw264.7 cells was “became phosphorylated in response to DMXAA in a dose- and time-dependent manner”. The “interaction with hSTING CTD” value in assay [1] (ITC) is on record as “no interaction”. In assay [1] (from upper bound of detection by ITC ∼100 μM), the “affinity for the CTD of hSTING lower than for mSTING” value was “at least 1000 fold”. Also, in the assay with Raw264.7 cells, the IFN-β secretion result was “induces IFN-β secretion”. Besides, the responsiveness of cells result in assay [2] was “responsive”. Further, the “IRF3 activation and nuclear translocation” value in the assay on IRF3 was “induces IRF3 activation and nuclear translocation”.

On to `Cc1cccc2oc3c(CC(=O)O)cccc3c(=O)c12` [XAA-8Me], for which, in the assay on human leukocytes, the “IL-6, IL-8 and TNFα secretion” value was “increased”.

Consider `Nc1nc2c(ncn2[C@@H]2O[C@@H]3COP(=O)(O)O[C@H]4[C@@H](O)[C@H](n5cnc6c(=O)[nH]c(N)nc65)O[C@@H]4COP(=O)(O)O[C@H]3[C@H]2O)c(=O)[nH]1` [c-di-GMP, cyclic-di-GMP], for which the dissociation constant Kd in assay [1] (ITC, 25°C, hSTING CTD) is approximately 5.2 µM; in assay [3] (read-out: dissociation constant (Kd), 25°C, mSTING CTD) it was approximately 0.11 µM. In addition, in assay [1] (ITC, hSTING CTD), the stoichiometry was 0.59. Besides, the “competition with fluorescent c-di-GMP probe (apparent IC50)” value at mSTING CTD was “competed out this signal”. The responsiveness of cells result in assay [2] was “responsive”. In addition, the “higher binding affinity of the mouse homolog vs hSTING” value in assay [3] (mSTING CTD vs hSTING CTD) is given as approximately 50 fold.

Broadly, the Kd is the equilibrium constant for the complex coming apart.
